# Test results published in patent US12246021B2, “Compounds for uses in pharmacological induction of HBF for treatment of sickle cell disease and ß-thalassemia” (Academia Sinica, priority 2019, dated 2025).
# Assays:
# [1] = system: human primary erythroid cells; experiment: RNA-sequence gene expression profile with Ingenuity Pathways Analysis; format: cell-based; details: human primary erythroid cells treated with AS-28
# Protocol: The RNA-sequence data was analyzed by Ingenuity Pathways Analysis (IPA). The top cellular pathways in the primary erythroid cells affected by AS-28 are listed here. DEGs: Fold change ≥1.4, p<0.05.
# (§1) In order to examine whether AS-28 would cause cellular toxicity, the gene expression profiles of human primary erythroid cells in culture were compared by RNA-sequence analysis. Several candidate genes, encoding known γ globin gene regulators were selected from the gene list of RNA-sequence data (fold change >1.4) for validation by RT-qPCR (FIG. 7). […] In addition, AS-28 inhibited the expression of γ globin repressor c-MYB (0.5-fold).
# To reveal the global effect of AS-28 on human primary erythroid cells, the differentially expressed genes (DEGs) from the RNA-sequence data (fold change ≥1.4 and p<0.05) were selected for analysis by Ingenuity Pathways Analysis (IPA).
# [2] = system: γ-globin gene; experiment: γ-globin mRNA induction by quantitative RT-PCR in primary human erythroid cell culture; format: cell-based; details: 3 days, primary human erythroid cells
# Protocol: (§2) Peripheral blood samples were purchased from the Taipei Blood Center. The concentrated blood was diluted 1:5 (V/V) in phosphate-buffered saline (PBS) and distributed in a thin layer on Ficoll-paque PLUS ([…]) (GE Healthcare) in a SepMate column (STEMCELL). After centrifugation at 1200 g for 10 minutes, the cells in the inter-phase region were collected. The collected cells were washed with PBS and centrifuged at low speed three times. The remaining mononuclear cells were expanded in Phase I medium containing 1×SFEM (STEMCELL), 100 ng/ml SCF, 20 ng/ml IL-3, 20 ng/ml IL-6, and 100 ng/ml Flt3-L at 37° C. in an incubator with 5% CO2 for 7 days. […]
# (§3) After 3 days of compound treatment, total RNA was extracted by a Quick-RNA miniprep kit (Zymo) and reverse-transcription was performed using Maxima H Minus Reverse Transcriptase (ThermoFisher Scientific) according to the manufacturer's instructions. Quantitative PCR was performed on a LightCycler system with SYBR green master mix following the manufacturer's instructions (Roche). The relative quantitative RT-PCR data was normalized to the Cq number of […] and compared to a mock control.
# Compound AS-28 was designed based on the pharmacophore of the HbF-inducing compound TN1 (FIGS. 1A-1B). The efficacy of γ-globin gene induction by AS-28 treatment using a primary human erythroid cell culture system was evaluated. […]
# [3] = system: c-MYB; experiment: RT-qPCR of γ-globin transcription regulators in human primary erythroid cells: c-MYB; format: cell-based; details: AS-28 0.5 μM
# Protocol: (§4) The total RNAs were isolated from human primary erythroid cells in culture without (Mock) and with (AS-28) treatment by AS-28, and analyzed by RT-qPCR. N=4 biological experiments, *, p<0.05; ***, p<0.001.
# as §3, §1
# [4] = system: GATA1; experiment: RT-qPCR of γ-globin transcription regulators in human primary erythroid cells: GATA1; format: cell-based; details: AS-28 0.5 μM
# Protocol: as §4, §3, §1
# [5] = in vivo; details: rat
# Source text: The abbreviations as defined as follows: IV—intravenous; PO—per-os (oral); T1/2—half-life; CL—clearance; Vss—steady-state distribution volume; AUC(0-inf)—area under the curve; F—bioavailability; ND—not detected.
# [6] = system: primary human erythroid cells; experiment: Cell viability assay (AlamarBlue) in primary human erythroid cell culture; format: cell-based; details: 3 days
# Protocol: as §2, with “days. The expanded mononuclear cells were further differentiated in Phase II medium containing 1×SFEM (StemSpan), 20 ng/ml SCF, 5 ng/ml IL-3, 1 U/ml EPO for another 7 days.” for “days.”
# Cell viability was assessed using AlamarBlue reagent (Invitrogen). […] Cell viability was evaluated using a multi-label counter (Ex 530-560 nm, Em 590 nm) (PerkinElmer).
# Compound AS-28 was designed based on the pharmacophore of the HbF-inducing compound TN1 (FIGS. 1A-1B). The efficacy of γ-globin gene induction by AS-28 treatment using a primary human erythroid cell culture system was evaluated. After two weeks of in vitro erythroid cell differentiation, cells were treated with AS-28 for three days and then harvested for quantitative RT-PCR analysis and cell viability assay.
# [7] = system: BCL11A protein; experiment: Western blot of BCL11A protein in primary human erythroid cells; format: cell-based; details: for expression level of BCL11A protein (in words): 3 days, AS-28 at 0.5 μM and 1 μM
# Protocol: (§5) Peripheral blood samples were purchased from the Taipei Blood Center. The concentrated blood was diluted 1:5 (V/V) in phosphate-buffered saline (PBS) and distributed in a thin layer on Ficoll-paque PLUS ([…]) (GE Healthcare) in a SepMate column (STEMCELL). After centrifugation at 1200 g for 10 minutes, the cells in the inter-phase region were collected. The collected cells were washed with PBS and centrifuged at low speed three times. The remaining mononuclear cells were expanded in Phase I medium containing 1×SFEM (STEMCELL), 100 ng/ml SCF, 20 ng/ml IL-3, 20 ng/ml IL-6, and 100 ng/ml Flt3-L at 37° C. in an incubator with 5% CO2 for 7 days. The expanded mononuclear cells were further differentiated in Phase II medium containing 1×SFEM (StemSpan), 20 ng/ml SCF, 5 ng/ml IL-3, 1 U/ml EPO for another 7 days. The differentiated erythroid cells were treated with indicated compounds of different dosages with a seeding density of 5×10^5 cells/ml for another 3 days.
# After 3 days of treatment, total protein was extracted by modified RIPA (50 mM Tris-HCl pH7.8, 150 mM NaCl, 1% NP-40, 0.5% sodium deoxycholate, 0.1% SDS, 1 mM EGTA, 5 mM EDTA, 10 mM NaF, 1 mM […] and 1× complete EDTA-free Protease Inhibitor Cocktail). 30 μg of protein extracts were separated by 10% SDS-PAGE and the resulting gel was blotted onto PVDF membrane. After blocking with 5% non-fat milk in TBST, the membrane was incubated overnight with primary antibody against BCL11A or β-actin at 4° C. After incubating with horseradish peroxidase-conjugated secondary antibodies and washing the blot, the signals of indicated proteins were visualized by ECL (PerkinElmer) following the manufacturer's protocol.
# BCL11A has been reported as a key negative regulator of γ-globin gene expression^23. Knockdown of BCL11A dramatically increases expression of the γ-globin gene. To investigate whether HbF-inducing agents activate γ-globin gene expression by modulating BCL11A protein levels, primary human erythroid cells were treated with known HbF-inducing agents (HU, NaB, and AS-28 (0.5 μM and 1 μM)), and also Compound II, SS-2394, Compound 3, Compound 8, and then harvested for Western blot analysis (FIG. 4; FIG. 11).
# [8] = system: NFE2L2; experiment: RT-qPCR of γ-globin transcription regulators in human primary erythroid cells: NFE2L2; format: cell-based; details: AS-28 0.5 μM
# Protocol: as §4, §3, §1
# [9] = system: SCD mice; experiment: Oral AS-28 in SCD mice: blood count, HbF HPLC, F-cells, blood smear; format: in vivo; details: 50, 75 or 100 mg/kg oral gavage twice per day, 5 days per week, 4 weeks
# Protocol: Sickle cell disease mice (B6; 129-Hba^tm1(HBA)Tow, Hbb^tm2(HBG1,HBB*)Tow/J) were purchased from Jackson Laboratory and were bred at the AS Core, Academia Sinica. Mice of 6-8 weeks old were used for experiments. Treatment groups received vehicle [20% (2-Hydroxypropyl)-β-cyclodextrin] plus AS-28 (50 mg/kg, 75 mg/kg or 100 mg/kg), which was administered by oral gavage twice per day, 5 days per week, for 4 weeks.
# Blood was collected by submandibular blood collection and analysis was performed using a ProCyte Dx automatic analyzer.
# 10 μl of whole blood was washed twice with PBS and then fixed with 0.05% glutaraldehyde for 10 minutes. After fixation, the cells were washed twice with PBS and then permeabilized by adding cold 0.1% Triton X-100 for 5 minutes. Cells were washed twice with 0.1% BSA/PBS and stained with PE-HbF antibody (BD) for 40 minutes at room temperature (with protection from light). Finally, the cells were washed three times with 0.1% BSA/PBS and passed through a […] cell strainer (Falcon). F-cell % was analyzed by flow cytometry (LSRII-18P, BD).
# 50 μl of whole blood was lysed in 200 μl ddH2O and centrifuged for 5 minutes at 13,000 rpm to extract the hemolysate. HPLC was performed according to a previously described protocol^22.
# For hypoxia treatment, whole blood was incubated in a hypoxic incubator chamber (3% 02) for 30 minutes. […] of whole blood (with or without hypoxia) was used to make blood smears on slides. Slides were air-dried and then stained with Liu-stain before quantifying the percentage of sickle-shaped cells.
# To further evaluate the therapeutic potential of AS-28 for treating hemoglobinopathies, SCD mice (an SCD disease animal model generated by the laboratory of Prof. Tim Townes, University of Alabama) were used to examine whether AS-28 treatment could relieve anemia in SCD mice. Different dosages of AS-28 were administered to 6-8 week-old SCD mice over four weeks. After four weeks of oral gavage, blood samples from the treated SCD mice were collected for several biochemical analyses (FIG. 5). […] Reticulocyte (RET), white blood cell (WBC) and neutrophil (NEUT) values were equivalent between AS-28-treated and mock-treated SCD mice. […] A diagnostic indicator of SCD is the characteristic sickle-shaped morphology of red blood cells under hypoxia.
# [10] = Solubility of the compounds; format: physicochemical
# [11] = system: HU-resistant primary human erythroid cells; experiment: Cell viability in hydroxyurea-resistant primary human erythroid cells; format: cell-based; details: 0.5 μM
# Protocol: as §5
# Cell viability was assessed using AlamarBlue reagent (Invitrogen). After 3 days of treatment, 100 μl of treated cell culture was transferred into a 96-well plate and 1/10 volume of AlamarBlue reagent was added and the cell culture was incubated overnight at 37° C. Cell viability was evaluated using a multi-label counter (Ex 530-560 nm, Em 590 nm) (PerkinElmer). […]
# [12] = system: γ-globin gene; experiment: γ-globin mRNA induction in hydroxyurea-resistant primary human erythroid cells; format: cell-based; details: 0.5 μM, HU-resistant primary human erythroid cells
# Protocol: as §2, with “days. The expanded mononuclear cells were further differentiated in Phase II medium containing 1×SFEM (StemSpan), 20 ng/ml SCF, 5 ng/ml IL-3, 1 U/ml EPO for another 7 days.” for “days.”
# as §3, with “control. […]” for “control.”
compound,measurement,setting,value
"CCN1CCN(c2nc(Nc3cccc(NC(=O)C#Cc4ccc(C)cc4)c3)c3ncn(CC)c3n2)CC1 [AS-28, 3-p-Tolyl-propynoic acid {3-[9-ethyl-2-(4-ethylpiperazin-1-yl)-9H-purin-6-ylamino]phenyl}amide]","top 5 canonical pathways affected (IPA of DEGs, fold change ≥1.4, p<0.05)",[1],does not include the cell toxicity-related pathways
same,γ-globin mRNA expression activation,[2]; 0.5 μM,3.5 fold
same,γ-globin induction,[2]; 1 μM and 2 μM,reduced
same,"c-MYB expression (γ globin repressor), RT-qPCR vs mock",[3],0.5 fold
same,"GATA1 expression (γ globin activator), RT-qPCR vs mock",[4],1.5 fold
same,bioavailability,[5],~25%
same,cytotoxicity,[6]; 0.5 μM,without inducing significant cytotoxicity
same,cytotoxicity,[6]; 1 μM and 2 μM,cell cytotoxicity
same,expression level of BCL11A protein (in words),[7],significantly decreased
same,reduction of BCL11A protein levels,[7]; FIG. 4,50%
same,reduction of BCL11A protein levels,[7]; FIG. 11,60%
same,"NFE2L2 expression (γ globin activator), RT-qPCR vs mock",[8],1.5 fold
same,hemoglobin levels (HGB) vs mock-treated control,[9],slightly increased
same,neutrophil (NEUT) values vs mock-treated,[9],equivalent
same,percentage of F-cells (flow cytometry),[9],elevated
same,percentage of HbF (HPLC),[9],significantly increased
same,percentage of sickle-shaped cells in blood smears under hypoxia,[9],significantly decreased
same,red blood cell (RBC) numbers vs mock-treated control,[9],slightly increased
same,reticulocyte (RET) values vs mock-treated,[9],equivalent
same,white blood cell (WBC) values vs mock-treated,[9],equivalent
same,water solubility,[10],improved
same,cytotoxicity,[11],only minor cytotoxicity
same,γ-globin mRNA expression elevation,[12],at least 2 fold
"CCCC(=O)[O-].[Na+] [NaB, sodium butyrate, reference compound]",expression level of BCL11A protein (in words),[7],significantly decreased
